Legend:
[1] = tested on: CAL-148 cells; assay: Combination therapy, resazurin viability, SynergyFinder; type: cell-based, human; details: Homo sapiens
Procedure: (§1) Eighteen pharmaceutical compounds were purchased from Selleckchem (Supplementary Table 2). Stock solutions were prepared using dimethyl sulfoxide (DMSO; Merck), physiological saline (sodium chloride 0.9%) or Milli-Q water, and stored at −80 °C. […] Matched concentration solvent vehicle controls were used for each drug concentration. The drug screens were performed in triplicate and repeated three (monotherapy) or two (combination therapy) times (Fig. 7).
(§2) The optimal seeding density per 96-well was determined for each cell line as previously described. The cells were seeded at a density of 4.0 × 10^3 to 7.5 × 10^3 (cell type dependent) in 96-well clear, flat-bottom microplates (Corning Life Sciences, Sigma-Aldrich) in 100 µl complete culture medium (Supplementary Table 1) and cultured for 24 h. Cell viability was determined using the resazurin assay in untreated cells at the time of plating (t = 0) and treated cells after 24 h drug treatment (Fig. 7). Percentage cell viability was calculated as 100% × (absorbance of treated cells – absorbance of background controls) / (absorbance of matched solvent vehicle controls – absorbance of background controls). The area under the curve (AUC), half-maximal inhibitory concentration (IC50), drug potency (GR50), and drug efficacy (GRmax) were determined for each compound using the GRmetrics (version 1.20.0) package in R. The monotherapy data were evaluated with the IDACombo (version 1.0.2) package in R to predict potential drug combinations (Table 1). SynergyFinder (version 3.2.10) package in R was used to identify synergistic drug combinations.
(§3) Eighteen pharmaceutical compounds were purchased from Selleckchem. […] The solubility of the compound was enhanced by pre-heating the solvent (lukewarm), if necessary. […] The stock solutions were stored at -80°C. […] Matched concentration solvent vehicle controls were used for each drug concentration. The drug screens were performed in triplicate and repeated three times for the monotherapies and twice for the combination treatments. The drug(s) and corresponding controls were plated in 96-well PCR plates (VWR) and stored at -20°C (Fig. 6). The drug plates were thawed, centrifuged (3000 rpm for 30s), and acclimatized to RT before the drugs were added to the cells. New drug plates were prepared for each drug screen.
(§4) The cells were seeded at a density of 4.0x10^3 to 7.5x10^3 (cell type-dependent) in 96-well clear, flat-bottom microplates (Corning Life Sciences, Sigma-Aldrich) in 100 µl culture medium supplemented with 10% FBS and cultured for 24h. Cell viability was determined using the resazurin assay after 24h drug treatment (Fig. 6). Percentage cell viability was calculated as 100% × (absorbance of treated cells – absorbance of background controls) / (absorbance of matched solvent vehicle controls – absorbance of background controls). Normalized growth rate inhibition (GR) was assessed using the absorbance of untreated cells after the time of plating (t = 0). […] For combination treatment, the monotherapy data were evaluated with the IDACombo (version 1.0.2)[20] package in R to predict potential drug combinations (Table 1). SynergyFinder (version 3.2.10)[21] package in R was used to identify synergistic drug combinations.

[2] = tested on: control cell lines (MCF-10A and MCF-7); assay: Monotherapy drug screen, mean across the controls; type: cell-based, human
Procedure: as §1, §2, §3, §4

[3] = tested on: eight TNBC cell lines (BT-549, CAL-148, HCC1806, HCC38, HCC70, MDA-MB-436, MDA-MB-453, MDA-MB-468); assay: Monotherapy drug screen, mean across the TNBC cell lines; details: 24 h
Procedure: as §1, §2, §3, §4

[4] = tested on: eight TNBC cell lines and two controls (MCF-10A and MCF-7); assay: Monotherapy drug screen, all investigated cell lines; type: cell-based, human
Procedure: as §1, §2, §3, §4

[5] = molecular target: T1, β5 catalytic site of the 20 S proteasome (Homo sapiens, UniProt P28074); assay: Proteasome activity of the β5 catalytic site in MCF-7 cells (Suc-Leu-Leu-Val-Tyr-AMC substrate); type: cell-based; details: MCF7, MCF-7 cells treated 6 h
T1 construct: endogenous in cells; host or cells: MCF-7
Procedure: Proteasome activity of the β5 catalytic site was determined for the PIs using a Suc-Leu-Leu-Val-Tyr-AMC fluorescent proteasome substrate (Enzo Life Sciences, Cat. BML-P802) at a final concentration of 20 µM. MCF-7 cells were seeded at 7.5 × 10^3 cells/well in black 96-well flat-bottom microplates (Nuclon™ Delta Surface, ThermoFisher Scientific) with 100 µl culture medium supplemented with 10% FBS. After 24 h, the cells were treated for 6 h with the 11 PIs at 1, 10, 100, and 1000 nM and matched untreated controls.

[6] = tested on: CAL-148 cells; assay: Resazurin-based cell viability assay, monotherapy drug screen; parameters: species or system human; AUC: unit not given beside the values; details: CAL-148
Procedure: as §1, §2, §3
Cell viability was measured daily (day 0 [plating day] to day 4) using 0.2 mg/ml resazurin solution prepared from resazurin sodium salt (Fisher Scientific) dissolved in sterile 1xPBS (ThermoFisher Scientific). Before use, the resazurin solution was brought to RT before 10 µl (10% of cell medium volume) was added to each 96-well and incubated for 4h at 37°C. […] The slope of the curve was used to determine the optimal seeding density, i.e., the highest seeding density with linear growth between days 1 and 3.
as §4

## CC(C)C[C@H](NC(=O)[C@H](Cc1ccccc1)NC(=O)c1cnccn1)B(O)O [Bortezomib]
[1]; bortezomib 10 nM alone
  inhibition at 0.01 µM: 12.5%
[1]; bortezomib 78 nM alone
  inhibition at 0.078 µM: 62.8%
[1]; bortezomib 625 nM alone
  inhibition at 0.625 µM: 55.1%
[1]; bortezomib 5000 nM alone
  inhibition at 5 µM: 55.6%
[2]; 24 h
  area under the dose response curve (AUC), mean ± SD: 0.69 ± 0.10
[2]; Homo sapiens, 24 h drug treatment, read-out: GR50 (mean ± SD)
  IC50: 0.021 ± 0.0097 µM
[3]; Homo sapiens, read-out: GR50 (mean ± SD)
  IC50: 0.1 ± 0.11 µM
[3]; TNBC cell lines
  area under the dose response curve (AUC), mean ± SD: 0.66 ± 0.10
[4]; GR50 and AUC both below the threshold
  drug potency classification, below the threshold: highly potent drugs
[4]; metrics GR50 < 1.0 µM and AUC < 0.80
  drug potency classification: potent drugs
[5]; 1000 nM
  inhibition at 1 µM: 95%
[5]; 10000 nM, read-out: inhibition of β5 activity
  inhibition at 10 µM: 100%
[6]; area under the dose response curve, 24 h
  AUC: 0.77
[6]; drug efficacy at highest tested dose (<0 cytotoxic, 0 cytostatic, >0 partial growth inhibition)
  GRmax: 0.17
[6]; Homo sapiens, growth rate inhibition concentration at GR(c) = 0.5, 24 h, read-out: GR50 (the source's name)
  IC50: 0.12 µM

Source: article PMC10825133, “Repurposing proteasome inhibitors for improved treatment of triple-negative breast cancer” (Cell Death Discovery, 2024)
